Test results taken from US20240174690A1, “ANNULATED 2-AMINO-3-CYANO THIOPHENES AND DERIVATIVES FOR THE TREATMENT OF CANCER” (BOEHRINGER INGELHEIM INTERNATIONAL GMBH, priority 2021, published 2024).
Where two headings read alike, the source gives them in different places.

How the values were obtained:
KRAS (WT)::SOS1 = KRAS (WT)::SOS1 (Homo sapiens (Human), UniProt P01116, C118S); test: KRAS::SOS1 AlphaScreen binding assay, KRAS WT
Description: (§1) This assay can be used to examine the potency with which compounds according to the invention binding to (mutated) KRAS inhibit the protein-protein interaction between SOS1 and (mutated) KRAS e.g., KRAS WT, KRAS G12C, KRAS G12D, KRAS G12V, KRAS G13D. […] Low IC50 values in this assay setting are indicative of strong inhibition of protein-protein interaction between SOS1 and KRAS:
(§2) These assays measure the inhibitory effect of compounds on KRAS mutant protein-protein interactions using the Alpha Screen technology by Perkin Elmer.
(§3) The following (mutant) enzyme forms of KRAS and interacting proteins are used in these assays at the given concentrations: • KRAS (G12D) 1-169, N-terminal 6His-tag, C-terminal avi-tag (Xtal BioStructures, Inc.); final assay concentration 10 nM and SOS1 564-1049, N-terminal 229 GST-tag, TEV cleavage site (Viva Biotech Ltd); final assay concentration 5 nM; • KRAS (G12C) 1-169, N-terminal 6His-tag for purification, cleaved off, C-terminal avi-tag, biotinylated, mutations: C51S, C80L, C118S (in house); final assay concentration 7.5 nM and SOS1 564-1049, N-terminal 229 GST-tag, TEV cleavage site (Viva Biotech Ltd); final assay concentration 5 nM; • KRAS (G12V) 1-169, N-terminal 6His-tag for purification, cleaved off, C-terminal avi-tag, biotinylated, TEV cleavage site, mutation: C118S, GDP loaded (in house); final assay concentration 10 nM and SOS1 564-1049, N-terminal 229 GST-tag, TEV cleavage site (Viva Biotech Ltd); final assay concentration 10 nM; • KRAS (G13D) 1-169, N-terminal 6His-tag for purification, cleaved off, C-terminal avi-tag, biotinylated, TEV cleavage site, mutation: C118S, GDP loaded (in house); final assay concentration 10 nM and SOS1 564-1049, N-terminal 229 GST-tag, TEV cleavage site (Viva Biotech Ltd); final assay concentration 10 nM; • KRAS (WT) 1-169, N-terminal 6His-tag for purification, cleaved off, C-terminal avi-tag, biotinylated, TEV cleavage site, mutation: C118S, GDP loaded (in house); final assay concentration 10 nM and SOS1 564-1049, N-terminal 229 GST-tag, TEV cleavage site (Viva Biotech Ltd); final assay concentration 10 nM.
(§4) Test compounds dissolved in DMSO are dispensed onto assay plates (Proxiplate 384 PLUS, white, PerkinElmer; 6008289) using an Access Labcyte Workstation with the Labcyte Echo 55×. For the chosen highest assay concentration of 100 μM, 150 nL of compound solution are transferred from a 10 mM DMSO compound stock solution. A series of eleven fivefold dilutions per compound are transferred to the assay plate, compound dilutions are tested in duplicates. DMSO are added as backfill to a total volume of 150 nL.
(§5) The assays run on a fully automated robotic system in a darkened room below 100 Lux. To 150 nl of compound dilution 10 μl of a mix including KRAS mutant protein, SOS1 (final assay concentrations see above) and GDP nucleotide (Sigma G7127; final assay concentration 10 μM) in assay buffer (1×PBS, 0.1% BSA, 0.05% Tween 20) are added into columns 1-24.
(§6) After 30 minutes incubation time 5 μl of Alpha Screen bead mix in assay buffer are added into columns 1-23. Bead mix consists of AlphaLISA Glutathione Acceptor Beads (PerkinElmer, Cat No AL109) and AlphaScreen Streptavidin Donor Beads (PerkinElmer Cat No 6760002) in assay buffer at a final assay concentration of 10 μg/ml each.
(§7) Plates are kept at room temperature in a darkened incubator. After an additional 60 minutes incubation time the signal is measured in a PerkinElmer Envision HTS Multilabel Reader using the AlphaScreen specs from PerkinElmer.
(§8) Each plate contains up to 16 wells of a negative control depending on the dilution procedure (platewise or serial) (DMSO instead of test compound; with KRAS mutant::SOS1 GDP mix and bead mix; column 23) and 16 wells of a positive control (DMSO instead of test compound; with KRAS mutant::SOS1 GDP mix w/o bead mix; column 24).
(§9) As internal control known inhibitors of KRAS mutant::SOS1 interaction can be measured on each compound plate. […]

MKN1 cells = test: MKN1 CTG proliferation assay (120 h) (gastric cancer, wt amplified); assay type: cell-based; settings: Homo sapiens
Method: MKN1 CTG Proliferation Assay (120 h) (Gastric Cancer, Wt Amplified)
MKN1 cells (JCRB0252) are dispensed into white 384-well plates, flat and white bottom (Corning Costar, PNr.: 3570) at a density of 400 cells per well in 50 μL RPMI 1640 (PAN-Biotech, PNr.: P04-18047)+10% FCS (HyClone, PNr.: SH30084.03) (assay 1) or into white 384-well plates, flat and white bottom (Perkin Elmer, 6007680) at a density of 500 cells per well in 40 μl RPMI (Gibco, PNr.: 21875034)+10% FCS (HyClone, PNr.: SH30084.03) (assay 2) or into black 384-well plates, flat and clear bottom (Greiner, PNr. 781091) at a density of 200 cells per well in 60 μl RPMI-1640 (Gibco #A10491)+10% FCS (HyClone, PNr.: SH30084.03)+PenStrep (Gibco, PNr.15140-122) (assay 3). […] Compounds (10 mM stock in DMSO) are added at logarithmic dose series using the HP Digital Dispenser D300 (Tecan) (assay 1+2) or the ECHO acoustic liquid handler system (Beckman Coulter) (assay 3), including DMSO controls and normalizing for added DMSO. Plates are incubated for 120 h, and cell viability is measured using CellTiter-Glo luminescent cell viability reagent (Promega product code G7570). Viability (stated as percent of control) is defined as relative luminescence units RLU of each well divided by the RLU of cells in DMSO controls. IC50 values are determined from viability measurements by non-linear regression using a four-parameter model.

KRAS (G12V)::SOS1 = KRAS (G12V)::SOS1 (Homo sapiens (Human), UniProt P01116, C118S/G12V); test: KRAS::SOS1 AlphaScreen binding assay, KRAS G12V
Description: as §1, §2, §3, §4, §5, §6, §7, §8, §9

[1] = MKN-1, assay 2, CTG 120 h, read-out: MKN1 (assay 2) IC50
[2] = MKN-1, assay 3, CTG 120 h, read-out: MKN1 (assay 3) IC50

KRAS (G12V)::SOS1, sequence (P01116 other isoform, or with tags, fused parts or gaps G12V/C118S): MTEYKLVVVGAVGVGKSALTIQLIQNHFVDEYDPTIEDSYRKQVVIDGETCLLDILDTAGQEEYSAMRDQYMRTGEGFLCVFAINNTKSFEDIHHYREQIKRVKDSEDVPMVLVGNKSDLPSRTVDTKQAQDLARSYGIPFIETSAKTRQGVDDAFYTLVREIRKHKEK
KRAS (WT)::SOS1, sequence (P01116 other isoform, or with tags, fused parts or gaps C118S): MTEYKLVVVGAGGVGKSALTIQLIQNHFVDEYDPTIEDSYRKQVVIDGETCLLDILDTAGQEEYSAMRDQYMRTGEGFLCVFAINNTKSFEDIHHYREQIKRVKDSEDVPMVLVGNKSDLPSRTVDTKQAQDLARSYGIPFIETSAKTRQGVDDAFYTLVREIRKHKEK

IC50 (KRAS (WT)::SOS1)	IC50 (MKN1 cells; [1])	IC50 (MKN1 cells; [2])	IC50 (KRAS (G12V)::SOS1)	SMILES
4 nM	499 nM			C[C@H](Oc1cc(N2CCNC3(CC3)C2)nc(-c2onc3c2CCC[C@@]32CCCc3sc(N)c(C#N)c32)n1)[C@@H]1CCCN1C [I-5]
		395 nM		C[C@H](Oc1cc(N2C[C@H](C)NC3(CC3)C2)nc(-c2onc3c2CCC[C@@]32CCCc3sc(N)c(C#N)c32)n1)[C@@H]1CCCN1C [I-8]
20 nM	> 3000 nM	501 nM	54 nM	C[C@H](Oc1cc(N2CC[C@H](N(C)C)C2)nc(-c2noc3c2CCC[C@@]32CCCc3sc(N)c(C#N)c32)n1)[C@@H]1CCCN1C [II-49]
5 nM		994 nM		C[C@H](Oc1cc(-n2cc3c(n2)CCNC3)nc(-c2noc3c2CCC[C@@]32CCCc3sc(N)c(C#N)c32)n1)[C@@H]1CCCN1C [II-53]
3 nM			9 nM	C[C@H](Oc1cc(N2CCNC3(CC3)C2)nc(-c2noc3c2CCC[C@@]32CCCc3sc(N)c(C#N)c32)n1)[C@@H]1CCCN1C [II-54]
10 nM		876 nM	11 nM	C[C@H](Oc1cc(N2CCN(C)CC2)nc(-c2noc3c2CCC[C@@]32CCCc3sc(N)c(C#N)c32)n1)[C@@H]1CCCN1C [II-55]
		660 nM		C[C@H](Oc1cc(N2C[C@H](C)N[C@@H](C)C2)nc(-c2noc3c2CCC[C@@]32CCCc3sc(N)c(C#N)c32)n1)[C@@H]1CCCN1C [II-56]
		578 nM		C[C@H](Oc1cc(N2Cc3cnn(C)c3C2)nc(-c2noc3c2CCC[C@@]32CCCc3sc(N)c(C#N)c32)n1)[C@@H]1CCCN1C [II-63]
2 nM				C[C@H](Oc1cc(N2CCNC2=O)nc(-c2noc3c2CCC[C@@]32CCCc3sc(N)c(C#N)c32)n1)[C@@H]1CCCN1C [II-64]
3 nM				C[C@H](Oc1cc(-n2ccnc2)nc(-c2noc3c2CCC[C@@]32CCCc3sc(N)c(C#N)c32)n1)[C@@H]1CCCN1C [II-69]
		387 nM		C[C@H](Oc1cc(-n2cncn2)nc(-c2noc3c2CCC[C@@]32CCCc3sc(N)c(C#N)c32)n1)[C@@H]1CCCN1C [II-70]
		68 nM		C[C@H](Oc1cc(N2CCCC3(COC3)C2)nc(-c2noc3c2CCC[C@@]32CCCc3sc(N)c(C#N)c32)n1)[C@@H]1CCCN1C [II-72]
		108 nM		C[C@H](Oc1cc(N2CCN(C)C2=O)nc(-c2noc3c2CCC[C@@]32CCCc3sc(N)c(C#N)c32)n1)[C@@H]1CCCN1C [II-75]
4 nM		18 nM		C[C@H](Oc1cc(N2CCOC3(COC3)C2)nc(-c2noc3c2CCC[C@@]32CCCc3sc(N)c(C#N)c32)n1)[C@@H]1CCCN1C [II-77]
7 nM		533 nM	3 nM	C[C@H](Oc1cc(-c2ccncc2)nc(-c2noc3c2CCC[C@@]32CCCc3sc(N)c(C#N)c32)n1)[C@@H]1CCCN1C [II-78]
36 nM		712 nM	9 nM	C[C@H](Oc1cc(-c2cncnc2)nc(-c2noc3c2CCC[C@@]32CCCc3sc(N)c(C#N)c32)n1)[C@@H]1CCCN1C [II-82]

IC50 (KRAS (WT)::SOS1)	IC50 (MKN1 cells; [1])	IC50 (MKN1 cells; [2])	IC50 (KRAS (G12V)::SOS1)	SMILES
5 nM		266 nM	2 nM	C[C@H](Oc1cc(-c2ccccn2)nc(-c2noc3c2CCC[C@@]32CCCc3sc(N)c(C#N)c32)n1)[C@@H]1CCCN1C [II-85]
5 nM				C[C@H](Oc1cc(-c2cnn(C)n2)nc(-c2noc3c2CCC[C@@]32CCCc3sc(N)c(C#N)c32)n1)[C@@H]1CCCN1C [II-86]
		302 nM		C[C@H](Oc1cc(-c2cn[nH]c2)nc(-c2noc3c2CCC[C@@]32CCCc3sc(N)c(C#N)c32)n1)[C@@H]1CCCN1C [II-87]
		625 nM		C[C@H](Oc1cc(-c2ccn(-c3ccccc3)n2)nc(-c2noc3c2CCC[C@@]32CCCc3sc(N)c(C#N)c32)n1)[C@@H]1CCCN1C [II-89]
33 nM			8 nM	C[C@H](Oc1cc(N2CCc3cccnc32)nc(-c2noc3c2CCC[C@@]32CCCc3sc(N)c(C#N)c32)n1)[C@@H]1CCCN1C [II-90]
		247 nM		CO[C@@H]1C[C@@H]([C@H](C)Oc2cc(-c3ccn(C)n3)nc(-c3noc4c3CCC[C@@]43CCCc4sc(N)c(C#N)c43)n2)N(C)C1 [II-91]
5 nM			2 nM	C[C@H](Oc1cc(-c2ccn(C)n2)nc(-c2noc3c2CCC[C@@]32CCCc3sc(N)c(C#N)c32)n1)[C@@H]1CCCN1C [II-96]
		598 nM		C[C@H](Oc1cc(-c2cccc(CO)c2)nc(-c2noc3c2CCC[C@@]32CCCc3sc(N)c(C#N)c32)n1)[C@@H]1CCCN1C [II-97]
8 nM			2 nM	C[C@H](Oc1cc(-c2ccc(N)nc2)nc(-c2noc3c2CCC[C@@]32CCCc3sc(N)c(C#N)c32)n1)[C@@H]1CCCN1C [II-101]
4 nM				C[C@H](Oc1cc(-c2ccn3ncnc3c2)nc(-c2noc3c2CCC[C@@]32CCCc3sc(N)c(C#N)c32)n1)[C@@H]1CCCN1C [II-104]
7 nM			3 nM	C[C@H](Oc1cc(-n2ccc(Br)n2)nc(-c2noc3c2CCC[C@@]32CCCc3sc(N)c(C#N)c32)n1)[C@@H]1CCCN1C [II-110]
4 nM				C[C@H](Oc1cc(-c2cnsc2)nc(-c2noc3c2CCC[C@@]32CCCc3sc(N)c(C#N)c32)n1)[C@@H]1CCCN1C [II-111]
		358 nM		COC(=O)c1ccc(-c2cc(O[C@@H](C)[C@@H]3CCCN3C)nc(-c3noc4c3CCC[C@@]43CCCc4sc(N)c(C#N)c43)n2)o1 [II-114]
		234 nM	5 nM	C[C@H](Oc1cc(-n2ccnc2)nc(-c2noc3c2CCC[C@@]32CCCc3sc(N)c(C#N)c32)n1)[C@@H]1C[C@@H](F)CN1C [II-120]
10 nM				CNC(=O)c1cn(-c2cc(O[C@@H](C)[C@@H]3CCCN3C)nc(-c3noc4c3CCC[C@@]43CCCc4sc(N)c(C#N)c43)n2)nn1 [II-122]
11 nM				C[C@H](Oc1cc(-n2cc(-c3cccnc3)nn2)nc(-c2noc3c2CCC[C@@]32CCCc3sc(N)c(C#N)c32)n1)[C@@H]1CCCN1C [II-123]
